Laboratory results reported in patent US6034230A, “Nucleic acids encoding myocardial peptides” (priority 1999, dated 2000).

System: Balb/c mice
Experiment: Oligodeoxynucleotides as immunostimulators: immunization with M7A-alpha peptide plus oligodeoxynucleotide, inflammatory heart disease at day 21
Assay type: in vivo
Settings: for Severity of inflammatory heart disease (score) / Prevalence of inflammatory heart disease: Table 2, day 21; for Severity of inflammatory heart disease (score): about 10 nmol oligodeoxynucleotide + about 50 micrograms M7A-alpha, score scale of Example 1; for Immunostimulatory / adjuvant activity: with M7A-alpha peptide, in the absence of Freund's complete adjuvant
[1] = about 10 nmol oligodeoxynucleotide as adjuvant + about 50 micrograms M7A-alpha, Freund's incomplete adjuvant, days 0 and 7

| Sequence | Severity of inflammatory heart disease (score) (Freund's incomplete adjuvant) | Prevalence of inflammatory heart disease [1] | Prevalence of inflammatory heart disease (negative control: about 10 nmol oligodeoxynucleotide without peptide) | Immunostimulatory / adjuvant activity |
| --- | --- | --- | --- | --- |
| GTACTGACGTTTACTCTTGG (chemistry not given here) [CpG, oligonucleotide from DNA encoding 60 kDa cysteine rich outer membrane protein of Chlamydia trachomatis, containing a CpG motif] | 1.2 ± 0.4 | 5/5 | 0/5 | potent immunostimulator |
| GTACTGAGCTTTACTCTTGG (chemistry not given here) [non-CpG, counterpart of the CpG oligo not containing the CpG motif, reference compound] | 1.0 ± 0.0 | 1/5 |  | hardly effective as an adjuvant |
